According to US5652222A, “Selective inhibition of leukemic cell proliferation by bcr-abl antisense oligonucleotides” (Temple University-of The Commonwealth System of Higher …, priority 1993, dated 1997):

What was measured:
[1] = tested on: CML blast crisis cells (L-6 type junction); test: CFU-L colony formation of CML blast crisis cells (Example 3); type: cell-based, human
Excerpt: Normal bone marrow mononuclear cells (MNC) were obtained by aspiration from consenting volunteers and enriched for hematopoietic progenitors as previously reported by numerous investigators (Zamecnick et al., Proc. Natl. Acad. Sci. U.S.A. 83, 4143-4147 (1986); Caracciolo et al., J. Clin. Invest. 85, 55-61 (1990)). In brief, marrow cells were subjected to Ficoll-Hypaque density gradient sedimentation and then depleted of adherent monocyte-macrophage and T-lymphocytes by adherence to plastic Petri dishes and rosetting with neuraminidase-treated sheep red blood cells, respectively. Philadelphia chromosome-positive blast cells were isolated by Ficoll-Hypaque density gradient sedimentation from a CML patient in blast crisis (L-6 type junction). […] The residual non-blast cells had the morphological appearance of small lymphocytes. 25,000 MNC and 25,000 CML blast cells were combined and incubated with bcr-abl breakpoint-Specific antisense oligomer (SEQ ID NO:3) (40 μg/ml at h 0; 20 μg/ml 18 hours later) or with a 4 nucleotide mismatch bcr-abl antisense oligomer (SEQ ID NO:2) (40 μg/ml at 0 h; 20 μg/ml 18 hours later) or left untreated. Four hours after the second addition of oligonucleotides to the cultures, cells were seeded into duplicate methylcellulose dishes containing IL-3 (20 U/ml) and GM-CSF (5 ng/ml) and allowed to grow for an additional 12 days. At the end of the incubation period colonies were counted.
The data is shown in Table 3, below, wherein values represent mean ± standard deviation of duplicate control cultures (no oligonucleotide added) and duplicate experimental cultures from two separate experiments. Colony forming unit-granulocyte macrophage (CFU-GM)-derived colonies consisted of 50 or more cell aggregates, while CFU-GM-derived clusters were defined as aggregates of between 4 and 40 cells. These are normal hematopoietic colonies derived from progenitors with the capability to differentiate along the granulocytic and macrophage lineages. […]

bcr-abl transcripts = test: bcr-abl transcript in residual colonies (RT-PCR); type: cell-based, human; details: colonies arising from mixed cell populations of Example 3
Procedure: To provide unambiguous evidence of the elimination of Philadelphia chromosome blast cells, residual cells from Example 3 were evaluated for the expression of bcr-abl transcripts, since the levels of this transcript should reflect the number of surviving leukemia cells. For this purpose, total RNA was isolated from a pool of colonies from Example 3, and the levels of bcr-abl transcripts were evaluated. Levels of β2 -microglobulin transcript were also determined as a control. The β2 -microglobulin gene is expressed independent of cell cycle.
Accordingly, bcr-abl and β2 -microglobulin transcripts were reverse-transcribed and amplified in the presence of specific primers and Taq polymerase as described by Rappollee, Science 241, 708-712 (1988). The amplification products were separated on a 2% agarose gel and transferred to a nitrocellulose filter, which was hybridized with a synthetic 40-nucleotide c-abl fragment and a 40-nucleotide β2 -microglobulin fragment and labeled with [γ-^32 P]-ATP and polynucleotide kinase. The c-abl probe recognizes the amplified 257-nucleotide sequence of FIG. 1, which contains the L-6 type bcr-abl junction. The β2 -microglobulin probe recognizes the 195-nucleotide sequence contained within 5' and 3' β2 -microglobulin primers (Id.; Suggs et al., Proc. Natl. Acad. Sci. U.S.A. 78, 6613 (1981)).

[2] = tested on: bcr-abl (b2/a2) transcripts; test: RT-PCR of bcr-abl transcripts in tissues of leukemic SCID mice; type: in vivo, SCID mice (human leukemic cells)
Procedure: According to a third assay, the extent of leukemic disease was assessed by chain RT-PCR to monitor the expression of b2/a2 transcripts (assay sensitivity=[…]) in total RNA isolated from bone marrow cells, splenocytes, peripheral blood leukocytes, liver, lung and brain tissues. Depending on the number of BV173 cells injected, various numbers of leukemic cells were detected by clonogenic assay and RT-PCR in murine tissues, 3 and 6 weeks after injection. A few days before the expected death of leukemic SCID mice, approximately 80, 65, and 10% cALLA-positive cells were detected in bone marrow cells, splenocytes and peripheral blood leukocytes, respectively.
(§1) To determine whether synthetic phosphorothioate oligodeoxynucleotides targeted against the bcr-abl junction of […] cells would modify the disease process in SCID mice. SCID mice were injected with 10^6 BV173 cells. The mice then received 1 mg of sense (ATCAATAAGG AAGCCCTTCAGCG, SEQ ID NO:34) or antisense ([…] ATTGAT, SEQ ID NO:29) b2/a2 bcr-abl phosphorothioate oligodeoxynucleotides (pyrogen leven <1 Eu/mg; 0.2 ml in Iscove modified Dulbecco medium in 5-10 seconds) intravenously for each of 9 consecutive days, beginning either 7 or 21 days after introducing 10^6 BV173 cells. Control mice received the diluent (iscove's modified Dulbecco medium) only. These time points approximate distinct disease stages in humans.
At 7 (+7) and 21 (+21) days after injecting SCID mice with 10^6 BV173 cells, single cell suspensions were prepared from various tissues. After lysing red cells with 0.83% NH4 Cl buffered with 0.17 mM Tris-HCl, pH 7.4, total RNA was extracted as described (Chomczynski and Sacchi, Anal. Biochem. 162, 156 (1987)) and the suspension was divided into two equal aliquots. Bcr-abl and β-actin transcripts were reverse-transcribed and amplified with specific primers and Taq polymerase as described by Szczylik et al., Science 253, 562 (1991). Amplification products were separated on a 2% agarose gel, transferred to a nitrocellulose filter and hybridized with a synthetic 40-base c-abl fragment or 20-base β-actinfragment end-labeled with [γ^32 -P]-ATP and polynucleotide kinase. The c-abl probe recognizes an amplified 257-bp sequence containing the bcr-abl junction: the β-actin probe recognizes a 209-bp fragment, contained within the 5' and 3' β-actin primers (Tokunaga et al., Nucleic Acids Res. 14, 2829 (1986)).

BV173 cells = test: Survival of leukemic SCID mice; type: in vivo, SCID mice (human leukemic cells); details: treatment starting from days +7 or +21 (FIG. 12)
Excerpt: To determine the lethal dose of BV173 cells in the SCID mice, we injected from 10^3 to 10^7 cells into the tail vein and monitored survival at various times postinjection. Mice injected with 10^7, 10^6, 10^5, or 10^4 BV173 cells died 8-10, 9-12, 13-15, or 14-22 weeks later, respectively, due to leukemia cell growth as confirmed on necroscopy. Spleen weight was about 40 times higher than that in noninjected SCID mice while liver and kidneys had numerous metastases and were enlarged 10-fold as compared to noninjected mice. Mice injected with 10^3 BV173 cells were still alive 35 weeks post implantation, and leukemia was never detected. From this study, 10^6 cells was taken as a lethal dose.
as §1

| Substance | Colonies or Clusters, CFU-L (colonies formed from CML blast crisis cells) ([1]; Table 3, 40 μg/ml at 0 h, 20 μg/ml 18 h later, 12 days, mean ± SD, control 806 ± 70) | number of colonies arising from the CML blast crisis cells (CFU-L) ([1]; after twelve days in culture) | bcr-abl transcript in RNA from colonies (bcr-abl transcripts) | bcr-abl transcripts in tissues ([2]; from day +7, 12 days after last treatment (4 weeks), blood, spleen, bone marrow, liver, lung, brain) | bcr-abl (b2/a2) transcripts in tissues ([2]; from day +7, 26 days after last treatment (6 weeks), blood leukocytes, spleen, bone marrow, liver, lung, brain) | bcr-abl transcripts in tissues ([2]; from day +21, 12 days after last treatment (6 weeks), blood, spleen, bone marrow, liver, lungs, brain) | bcr-abl transcripts in tissues ([2]; from day +21, 26 days after treatment (8 weeks)) | mortality / survival outcome (BV173 cells) | survival after i.v. injection of 10^6 BV173 cells (BV173 cells) |
| --- | --- | --- | --- | --- | --- | --- | --- | --- | --- |
| SEQ ID NO:3: synthetic 18-mer GAAGGGCTTC TTCCTTAT specific for the 18-nucleotide target sequence of the L-6 bcr-abl junction (antisense GAAGGGCTTCTTCCTTAT; chemistry not given here) | 180 ± 14 colonies or clusters | much lower than that arising in the presence of the mismatched bcr-abl oligomer | No bcr-abl transcript was detected | – | – | – | – | – | – |
| SEQ ID NO:34: phosphorothioate sense sequence ATCAATAAGGAAGCCCTTCAGCG (23-mer b2a2 sense) (sense ATCAATAAGGAAGCCCTTCAGCG; all phosphorothioate, sugars by position and methylation of C not given here) | – | – | – | bcr-abl transcripts in each of the tissues analyzed except brain | readily detected in each tissue | Bcr-abl transcripts were detected | readily detectable | died with diffuse leukemia | 10-13 weeks |
